Experimental data reported in patent US8497278B2, “Imidazo[1,2-a]pyridine compounds” (priority 2008, dated 2013).

Legend:
[1] = biological target: T1, α2 subtype containing GABA-A receptors (Homo sapiens, UniProt P18507+P47869); test: Two-electrode voltage clamp electrophysiology in Xenopus oocytes, potentiation of GABA EC20 response, α2; format: cell-based; conditions: 100 nM compound; for activation at 0.1 µM: read-out: Percentage of potentiation alpha2
T1 construct: expressed in transfected cells; host or cells: Xenopus laevis oocytes, cRNA injected
Outline: (§1)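 Human α1/α2/α3/α5 with β3 and γ2L subunits expressed in Xenopus oocytes from injected cRNA, clamped at −80 mV in ND96 (pH 7.5). After baseline responses to GABA at EC20 (60 μM), 1 μM chlordiazepoxide served as potentiation standard, then test compound at 100 nM; one compound per oocyte.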

[2] = tested on: central benzodiazepine receptors; test: Central benzodiazepine receptor binding (test of Speth et al.); conditions: 1000 nM of the compound
Outline: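 Radioligand binding by the Speth et al. method. Specific binding is total minus nonspecific binding, the latter measured with excess unlabelled ligand. Compounds screened at 1.0E-09, 1.0E-07 and 1.0E-05 M in single determination; values given as percent inhibition at 1000 nM compound.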

Wistar rats = test: Vogel conflict test; format: in vivo; conditions: rat, 60 min before test, 3 minute test
Method: Vogel Conflict Test Protocol: The Vogel conflict test is an animal model of anxiety described by Vogel et al. (1971). In this test, water deprived animals are placed in a cage with free access to a drinking bottle. Whenever the animal drinks, an electric shock is administered. Animals punished during drinking rapidly cease to drink. Anxiolytic drugs decrease the effect of punishment and increase the number of shocks accepted by the rats in this conflict situation. Male Wistar rats were used in these studies. Rats were deprived of water for approximately 48 hours and then placed individually into a transparent Plexiglas enclosure with a floor consisting of stainless steel bars spaced 1 cm apart. The back wall of the enclosure was made of opaque Plexiglas thereby concealing the observer from the experimental animal. In the center of the opposite wall, 5 cm above the floor, a metal water spout protruded into the cage and was connected to one pole of a shock generator. The other pole of the shock generator was connected to the metal grid floor. The rat is left to explore until it finds the water spout. Then, every time it drinks, it receives an electric shock (1.7 mA, 1 sec duration) 2 seconds after it starts drinking The number of punished drinks is counted during a 3 minute test. Ten rats are studied per treatment group. Clobazam (64 mg/kg) was used as the positive control. Compounds of the present invention, vehicle (45% hydroxypropyl beta-cyclodextrin) and clobazam were administered orally to all groups (n=10 […] per group) 60 minutes prior to behavioral testing. All data were analyzed using unpaired Student's t-tests. An effect was considered significance if p<0.05.

[3] = biological target: T2, α1 subtype containing GABA-A receptors (Homo sapiens, UniProt P14867+P18507); test: Two-electrode voltage clamp electrophysiology in Xenopus oocytes, potentiation of GABA EC20 response, α1; format: cell-based; conditions: 100 nM compound; for activation at 0.1 µM: read-out: Percentage of potentiation alpha1
T2 construct: expressed in transfected cells; host or cells: Xenopus laevis oocytes, cRNA injected
Outline: as §1

[4] = biological target: T3, α3 subtype containing GABA-A receptors (Homo sapiens, UniProt P18507+P34903); test: Two-electrode voltage clamp electrophysiology in Xenopus oocytes, potentiation of GABA EC20 response, α3; format: cell-based; conditions: 100 nM compound; for activation at 0.1 µM: read-out: Percentage of potentiation alpha3
T3 construct: expressed in transfected cells; host or cells: Xenopus laevis oocytes, cRNA injected
Method: (§2) Electrophysiology protocol: Oocytes were prepared from adult female Xenopus laevis frogs. cRNA encoding human α1, α2, α3, α5, β3 and γ2L GABAA receptor subunits was injected into the cytoplasm of stage 5 or 6 oocytes using the Robocyte Robot (Multi Channel Systems, Reutlingen, Germany). Two-electrode voltage clamp recordings were made in 96-well plates using the Robocyte Robot. Oocytes were impaled using recording heads with two glass electrodes containing 1.5 M potassium acetate and 0.5 M KCl and held at a membrane potential of −80 mV. Oocytes were continually perfused with a ND96 solution (96 mM NaCl, 2 mM KCl, 0.1 mM CaCl2, and 5 mM HEPES, pH 7.5) using a Gilson 222 XL Liquid Handler and Gilson Minipuls 3 Peristaltic Pump (Gilson Medical Electronics, Middleton, Wis., USA). The protocol consisted of three 20-s applications of GABA that gave a 20% of the maximum response (EC20: 60 μM) to allow for headroom to determine a baseline GABA response. To assess the potentiation, oocytes were first exposed to a single 1 μM chlordiazepoxide (CDP) as a potentiation standard. Oocytes with insufficient expression levels (currents below threshold) or insufficient γ2L subunit incorporation (judged by rapid desensitization upon GABA application, or by insufficient potentiation by CDP) were not included in analysis. Following this control application, a given oocyte was exposed to test compounds at 100 nM concentrations. Only one concentration of one compound was tested per oocyte. […] One skilled in the art will recognize that subtypes contribute to the effects of GABA-A modulators. Such that compounds favoring different subtypes can have different therapeutic effects. The magnitude of modulation, for example, partial modulators can influence the effects in vivo. “++” indicates a greater modulation that “+” so that at any given subtype “++” inducates a greater amount of modulation for that subtype. In some embodiments, modulation favoring alpha 1 relative to alpha2 and/or alpha 3 can have sedative hypnotic effects. In other embodiments, compounds with reduced selectivity of alpha 1 can express anxiolytic effects with less sedation. Compounds with selectivity for alpha 5 can have memory/cognition enhancing effects.

[5] = biological target: T4, α5 subtype containing GABA-A receptors (Homo sapiens, UniProt P18507+P31644); test: Two-electrode voltage clamp electrophysiology in Xenopus oocytes, potentiation of GABA EC20 response, α5; format: cell-based; conditions: 100 nM compound; for activation at 0.1 µM: read-out: Percentage of potentiation alpha5
T4 construct: expressed in transfected cells; host or cells: Xenopus laevis oocytes, cRNA injected
Method: as §2

T2 sequence (P14867 28-456): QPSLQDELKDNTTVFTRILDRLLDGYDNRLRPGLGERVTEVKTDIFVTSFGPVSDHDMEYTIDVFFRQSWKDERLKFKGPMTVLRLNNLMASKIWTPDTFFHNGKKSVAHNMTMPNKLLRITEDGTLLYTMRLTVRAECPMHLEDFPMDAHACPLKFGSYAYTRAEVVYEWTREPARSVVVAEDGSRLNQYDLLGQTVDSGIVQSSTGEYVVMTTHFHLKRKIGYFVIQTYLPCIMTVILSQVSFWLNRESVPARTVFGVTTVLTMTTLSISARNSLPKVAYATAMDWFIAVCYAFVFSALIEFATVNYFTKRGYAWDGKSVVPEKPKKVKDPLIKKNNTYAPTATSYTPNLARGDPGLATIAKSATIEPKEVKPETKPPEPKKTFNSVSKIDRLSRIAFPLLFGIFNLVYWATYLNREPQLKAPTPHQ
T2 sequence (P28472 26-473 partner): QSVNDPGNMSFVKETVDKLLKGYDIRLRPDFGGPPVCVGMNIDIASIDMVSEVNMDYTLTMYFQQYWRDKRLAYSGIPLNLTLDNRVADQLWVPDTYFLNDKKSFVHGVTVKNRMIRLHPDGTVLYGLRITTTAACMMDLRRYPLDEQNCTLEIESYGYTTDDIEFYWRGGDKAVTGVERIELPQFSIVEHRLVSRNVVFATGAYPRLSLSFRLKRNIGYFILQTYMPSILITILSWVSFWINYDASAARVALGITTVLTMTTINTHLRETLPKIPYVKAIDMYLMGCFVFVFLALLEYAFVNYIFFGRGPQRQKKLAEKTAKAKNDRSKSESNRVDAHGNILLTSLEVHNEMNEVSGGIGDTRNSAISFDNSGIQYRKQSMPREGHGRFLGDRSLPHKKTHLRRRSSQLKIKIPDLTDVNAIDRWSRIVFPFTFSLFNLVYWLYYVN
T2 sequence (P18507 40-475): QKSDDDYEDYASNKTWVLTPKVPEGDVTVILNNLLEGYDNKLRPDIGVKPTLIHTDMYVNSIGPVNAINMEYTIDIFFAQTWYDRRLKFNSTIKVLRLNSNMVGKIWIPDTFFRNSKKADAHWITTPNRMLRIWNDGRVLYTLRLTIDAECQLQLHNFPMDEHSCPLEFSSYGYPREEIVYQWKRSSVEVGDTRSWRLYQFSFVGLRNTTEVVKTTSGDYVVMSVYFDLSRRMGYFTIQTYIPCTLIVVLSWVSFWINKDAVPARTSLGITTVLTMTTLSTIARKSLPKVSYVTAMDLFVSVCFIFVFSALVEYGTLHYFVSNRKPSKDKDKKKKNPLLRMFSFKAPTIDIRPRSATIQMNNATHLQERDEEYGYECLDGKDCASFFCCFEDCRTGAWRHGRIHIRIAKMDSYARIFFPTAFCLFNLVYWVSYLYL
T4 sequence (P31644 32-462): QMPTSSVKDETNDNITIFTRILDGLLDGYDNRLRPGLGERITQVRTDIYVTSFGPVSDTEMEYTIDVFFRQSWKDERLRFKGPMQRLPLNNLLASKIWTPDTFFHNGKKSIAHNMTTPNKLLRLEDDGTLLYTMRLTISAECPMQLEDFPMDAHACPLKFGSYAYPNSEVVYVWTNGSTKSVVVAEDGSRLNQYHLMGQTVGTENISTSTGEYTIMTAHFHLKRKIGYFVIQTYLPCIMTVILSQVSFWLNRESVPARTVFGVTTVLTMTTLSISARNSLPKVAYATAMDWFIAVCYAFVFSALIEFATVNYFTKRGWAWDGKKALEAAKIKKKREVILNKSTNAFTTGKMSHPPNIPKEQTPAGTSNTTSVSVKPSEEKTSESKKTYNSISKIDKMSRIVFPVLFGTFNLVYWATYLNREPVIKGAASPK
T4 sequence (P28472 26-473 partner): as the sequence (P28472 26-473 partner) above
T4 sequence (P18507 40-475): as the sequence (P18507 40-475) above
T3 sequence (P34903 29-492): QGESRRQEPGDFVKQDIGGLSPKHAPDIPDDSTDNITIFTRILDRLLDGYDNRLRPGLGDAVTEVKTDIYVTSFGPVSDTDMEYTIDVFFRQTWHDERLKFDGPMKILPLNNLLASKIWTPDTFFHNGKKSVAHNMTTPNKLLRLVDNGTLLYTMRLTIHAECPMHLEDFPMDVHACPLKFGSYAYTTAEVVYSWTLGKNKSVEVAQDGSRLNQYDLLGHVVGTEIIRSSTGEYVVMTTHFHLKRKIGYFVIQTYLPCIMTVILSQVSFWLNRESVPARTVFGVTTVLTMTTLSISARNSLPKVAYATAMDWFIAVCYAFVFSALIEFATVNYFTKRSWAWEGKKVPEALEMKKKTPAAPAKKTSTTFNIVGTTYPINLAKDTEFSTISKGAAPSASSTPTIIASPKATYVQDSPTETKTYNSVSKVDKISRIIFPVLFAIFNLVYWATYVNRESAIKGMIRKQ
T3 sequence (P28472 26-473 partner): as the sequence (P28472 26-473 partner) above
T3 sequence (P18507 40-475): as the sequence (P18507 40-475) above
T1 sequence (P47869 29-451): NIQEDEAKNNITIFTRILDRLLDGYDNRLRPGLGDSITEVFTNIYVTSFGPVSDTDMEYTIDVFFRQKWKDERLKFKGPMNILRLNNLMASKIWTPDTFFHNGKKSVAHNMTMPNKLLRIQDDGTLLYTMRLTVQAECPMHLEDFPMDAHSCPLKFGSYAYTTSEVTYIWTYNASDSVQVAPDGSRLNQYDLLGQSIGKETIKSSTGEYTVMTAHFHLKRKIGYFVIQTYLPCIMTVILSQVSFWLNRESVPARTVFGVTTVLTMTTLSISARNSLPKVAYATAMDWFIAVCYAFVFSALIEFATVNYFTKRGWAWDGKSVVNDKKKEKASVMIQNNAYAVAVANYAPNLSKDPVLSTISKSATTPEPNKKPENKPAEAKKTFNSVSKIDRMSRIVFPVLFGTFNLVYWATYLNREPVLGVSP
T1 sequence (P28472 26-473 partner): as the sequence (P28472 26-473 partner) above
T1 sequence (P18507 40-475): as the sequence (P18507 40-475) above

SMILES	activation at 0.1 µM [1] [%]	% Inhibition at 1000 nM for CBZD [2]	Number of Shocks Mean ± S.E.M. (Wistar rats; 1 mg/kg PO)	Number of Shocks Mean ± S.E.M. (Wistar rats; 3 mg/kg PO)	Number of Shocks Mean ± S.E.M. (Wistar rats; 10 mg/kg PO)	activation at 0.1 µM [3] [%]	Percentage of potentiation alpha2 [1]	Percentage of potentiation alpha3 [4]	Percentage of potentiation alpha5 [5]	Percentage of potentiation alpha1 [3]	activation at 0.1 µM [4] [%]	activation at 0.1 µM [5] [%]	Number of Shocks Mean ± S.E.M. (Wistar rats; 0.3 mg/kg PO)
Clc1ccc(-c2nc3ccccn3c2Cn2ccnn2)cc1 [Compound 40, 2-(4-Chloro-phenyl)-3-[1,2,3]triazol-1-ylmethyl-imidazo[1,2-a]pyridine]	10 to 50	++ (percentage of inhibition of central BZD site binding is greater than 80% in the presence of 1000 nM of the compound)	2.4 ± 0.4	3.4 ± 0.7	4.4 ± 0.7	-10 to 10							
Fc1ccc2nc(-c3ccc(Cl)cc3)c(Cn3nnc4ccccc43)n2c1 [Compound 58, 1-((2-(4-chlorophenyl)-6-fluoroH-imidazo[1,2-a]pyridin-3-yl)methyl)-1H-benzo[d][1,2,3]triazole]		++ (percentage of inhibition of central BZD site binding is greater than 80% in the presence of 1000 nM of the compound)					+ (percentage of potentiation is greater than or equal to 10% but less than 50% in the presence of 100 nM of the compound)	0 (percentage of potentiation is between about 10% to about −10%)	0 (percentage of potentiation is between about 10% to about −10%)	+ (percentage of potentiation is greater than or equal to 10% but less than 50% in the presence of 100 nM of the compound)			
Cc1nnc(Cc2c(-c3ccccc3)nc3ccc(Cl)cn23)o1 [Compound 205, 2-((6-chloro-2-phenylimidazo[1,2-a]pyridin-3-yl)methyl)-5-methyl-1,3,4-oxadiazole]	-10 to 10	++ (percentage of inhibition of central BZD site binding is greater than 80% in the presence of 1000 nM of the compound)				-10 to 10					-10 to 10	-10 to 10	
O=c1n(Cc2c(-c3ccc(Cl)cc3)nc3ccccn23)nc2ccccn12 [Compound 119, 2-((2-(4-chlorophenyl)imidazo[1,2-a]pyridin-3-yl)methyl)-[1,2,4]triazolo[4,3-a]pyridin-3(2H)-one]	10 to 50	++ (percentage of inhibition of central BZD site binding is greater than 80% in the presence of 1000 nM of the compound)				-10 to 10					-10 to 10	-10 to 10	
CC(C)OC(=O)c1ncnn1Cc1c(-c2ccc(Cl)cc2)nc2ccc(Cl)cn12 [Compound 23, 2-[6-Chloro-2-(4-chloro-phenyl)-imidazo[1,2-a]pyridin-3-ylmethyl]-2H-[1,2,4]triazole-3-carboxylic acid isopropyl ester]	10 to 50	++ (percentage of inhibition of central BZD site binding is greater than 80% in the presence of 1000 nM of the compound)				10 to 50					10 to 50	-10 to 10	
Clc1ccc(-c2nc3ccccn3c2Cn2nccn2)cc1 [Compound 39, 2-(4-Chloro-phenyl)-3-[1,2,3]triazol-2-ylmethyl-imidazo[1,2-a]pyridine]	10 to 50	++ (percentage of inhibition of central BZD site binding is greater than 80% in the presence of 1000 nM of the compound)				10 to 50					10 to 50	-10 to 10	
Cc1cc(Cl)nc(NCc2c(-c3ccc(Cl)cc3)nc3ccc(Cl)cn23)n1 [Compound 170, 4-chloro-N-((6-chloro-2-(4-chlorophenyl)imidazo[1,2-a]pyridin-3-yl)methyl)-6-methylpyrimidin-2-amine]	10 to 50	++ (percentage of inhibition of central BZD site binding is greater than 80% in the presence of 1000 nM of the compound)	5.6 ± 0.9	6.5 ± 1.0		10 to 50					10 to 50	-10 to 10	5.1 ± 0.9
Cc1ccc(-c2nc3ccc(C)cn3c2CNc2ncccn2)cc1 [Compound 139, N-((6-methyl-2-p-tolylH-imidazo[1,2-a]pyridin-3-yl)methyl)pyrimidin-2-amine]	10 to 50	++ (percentage of inhibition of central BZD site binding is greater than 80% in the presence of 1000 nM of the compound)				10 to 50					-10 to 10	-10 to 10	
